The text below walks through data of ChEMBL document CHEMBL1131034, “Synthesis and pharmacological characterization of novel 6-fluorochroman derivatives as potential 5-HT1A receptor antagonists” (J Med Chem, 1998).

In general, Ki refers to the equilibrium dissociation constant of an inhibitor or competing ligand from its target. Read a high Ki as weaker binding.

Experiment [1] deals with Serotonin 1a (5-HT1a) receptor/Adrenergic receptor alpha-1 (Rattus norvegicus) (UniProt P15823+P23944+P43140+P19327). Nature of the experiment: Selectivity for 5-HT1A receptor of rat hippocampus and alpha-1 adrenergic receptor of rat cortex. Format: tissue-based.
A short description of experiment [2]: Binding affinity (Ki) ratio of D2 receptor of rat striatum and 5-HT1A receptor of rat hippocampus. Format: tissue-based.
For experiment [3], the target named is T1, 5-hydroxytryptamine receptor 1A (Rattus norvegicus, UniProt P19327).
T1 sequence (P19327 whole entry): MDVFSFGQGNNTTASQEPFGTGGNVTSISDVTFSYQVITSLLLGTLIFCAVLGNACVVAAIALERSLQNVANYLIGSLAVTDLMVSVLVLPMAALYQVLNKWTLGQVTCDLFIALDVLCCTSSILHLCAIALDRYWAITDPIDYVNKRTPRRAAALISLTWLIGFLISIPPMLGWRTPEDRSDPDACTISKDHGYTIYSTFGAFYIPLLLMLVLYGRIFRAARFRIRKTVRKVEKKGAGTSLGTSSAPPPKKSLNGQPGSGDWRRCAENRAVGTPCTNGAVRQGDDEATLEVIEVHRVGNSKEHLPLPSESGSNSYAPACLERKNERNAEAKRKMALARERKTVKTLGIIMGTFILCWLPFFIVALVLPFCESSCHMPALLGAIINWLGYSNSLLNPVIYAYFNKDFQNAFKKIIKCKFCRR
Briefly: Binding affinity against 5-hydroxytryptamine 1A receptor on rat hippocampus using [3H]8-OH-DPAT as radioligand. Format: tissue-based.

In experiment [4] the target is T2, Adrenergic receptor alpha-1 (Rattus norvegicus, UniProt P15823+P23944+P43140).
T2 sequence (P15823 whole entry): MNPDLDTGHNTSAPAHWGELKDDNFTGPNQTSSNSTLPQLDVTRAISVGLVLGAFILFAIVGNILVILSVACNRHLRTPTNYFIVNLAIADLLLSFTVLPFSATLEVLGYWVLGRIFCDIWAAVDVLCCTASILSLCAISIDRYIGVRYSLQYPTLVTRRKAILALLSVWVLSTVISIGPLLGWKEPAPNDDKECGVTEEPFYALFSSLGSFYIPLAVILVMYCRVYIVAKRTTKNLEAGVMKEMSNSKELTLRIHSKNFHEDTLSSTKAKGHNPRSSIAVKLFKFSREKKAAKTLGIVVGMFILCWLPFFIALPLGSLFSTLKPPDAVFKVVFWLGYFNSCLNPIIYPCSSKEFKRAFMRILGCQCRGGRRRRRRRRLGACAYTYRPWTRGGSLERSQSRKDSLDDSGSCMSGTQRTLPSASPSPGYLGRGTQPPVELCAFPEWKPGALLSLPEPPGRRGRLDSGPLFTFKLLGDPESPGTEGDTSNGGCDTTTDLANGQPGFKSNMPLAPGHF
T2 sequence (P23944 whole entry): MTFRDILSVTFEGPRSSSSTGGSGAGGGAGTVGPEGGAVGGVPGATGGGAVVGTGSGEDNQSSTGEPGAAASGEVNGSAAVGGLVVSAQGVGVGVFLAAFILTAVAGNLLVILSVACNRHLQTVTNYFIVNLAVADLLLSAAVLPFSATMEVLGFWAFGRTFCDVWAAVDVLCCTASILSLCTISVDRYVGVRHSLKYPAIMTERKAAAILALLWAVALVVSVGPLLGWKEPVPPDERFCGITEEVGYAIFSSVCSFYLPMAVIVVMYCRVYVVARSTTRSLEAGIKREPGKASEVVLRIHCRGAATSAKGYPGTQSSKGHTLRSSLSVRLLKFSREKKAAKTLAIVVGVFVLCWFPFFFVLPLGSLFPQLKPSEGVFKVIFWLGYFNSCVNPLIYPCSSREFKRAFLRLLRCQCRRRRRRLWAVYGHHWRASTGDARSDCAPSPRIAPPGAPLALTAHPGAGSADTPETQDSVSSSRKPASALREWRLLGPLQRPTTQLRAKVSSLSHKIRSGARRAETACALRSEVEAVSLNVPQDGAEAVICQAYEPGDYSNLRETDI
T2 sequence (P43140 whole entry): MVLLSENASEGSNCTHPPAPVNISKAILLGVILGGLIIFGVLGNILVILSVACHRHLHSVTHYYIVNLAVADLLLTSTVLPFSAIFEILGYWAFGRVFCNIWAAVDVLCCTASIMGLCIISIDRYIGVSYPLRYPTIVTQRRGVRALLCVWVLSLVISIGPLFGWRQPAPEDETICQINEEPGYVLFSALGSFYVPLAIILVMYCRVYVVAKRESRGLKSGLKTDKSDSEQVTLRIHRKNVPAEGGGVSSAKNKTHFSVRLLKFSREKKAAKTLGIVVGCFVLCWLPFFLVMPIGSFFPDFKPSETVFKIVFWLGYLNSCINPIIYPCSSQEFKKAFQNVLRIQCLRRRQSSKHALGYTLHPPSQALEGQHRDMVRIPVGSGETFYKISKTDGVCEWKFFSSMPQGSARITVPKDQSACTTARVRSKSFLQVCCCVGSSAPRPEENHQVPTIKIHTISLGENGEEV
Briefly: Binding affinity against alpha-1 adrenergic receptor on rat cortex using [3H]-prazosin as radioligand. Format: tissue-based, Brain.

A further experiment has as its target D(2) dopamine receptor (Rattus norvegicus, UniProt P61169). Briefly: Binding affinity against dopamine receptor D2 on rat striatum using [3H]spiperone as radioligand. Format: tissue-based.
The target of experiment [5] is T3, 5-hydroxytryptamine receptor 1A (Homo sapiens) (UniProt P08908).
T3 sequence (whole entry): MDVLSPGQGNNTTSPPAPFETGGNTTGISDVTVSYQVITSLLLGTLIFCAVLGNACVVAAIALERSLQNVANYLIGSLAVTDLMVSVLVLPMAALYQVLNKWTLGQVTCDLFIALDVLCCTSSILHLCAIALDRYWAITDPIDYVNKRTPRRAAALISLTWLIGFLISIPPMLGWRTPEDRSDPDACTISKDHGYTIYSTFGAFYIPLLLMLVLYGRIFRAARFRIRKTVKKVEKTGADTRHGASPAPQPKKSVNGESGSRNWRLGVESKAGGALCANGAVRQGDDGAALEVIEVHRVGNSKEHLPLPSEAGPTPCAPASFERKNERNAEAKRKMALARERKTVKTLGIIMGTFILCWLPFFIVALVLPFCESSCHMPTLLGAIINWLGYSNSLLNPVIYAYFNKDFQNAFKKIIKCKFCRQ
Nature of the experiment: Antagonist activity against CHO cells expressing the human 5-hydroxytryptamine 1A receptor in a forskolin stimulated adenylate cyclase (FSC) assay. Format: functional, cell-based.

SMILES strings stand for the structures.

Chain of D(2) dopamine receptor (P61169 whole entry): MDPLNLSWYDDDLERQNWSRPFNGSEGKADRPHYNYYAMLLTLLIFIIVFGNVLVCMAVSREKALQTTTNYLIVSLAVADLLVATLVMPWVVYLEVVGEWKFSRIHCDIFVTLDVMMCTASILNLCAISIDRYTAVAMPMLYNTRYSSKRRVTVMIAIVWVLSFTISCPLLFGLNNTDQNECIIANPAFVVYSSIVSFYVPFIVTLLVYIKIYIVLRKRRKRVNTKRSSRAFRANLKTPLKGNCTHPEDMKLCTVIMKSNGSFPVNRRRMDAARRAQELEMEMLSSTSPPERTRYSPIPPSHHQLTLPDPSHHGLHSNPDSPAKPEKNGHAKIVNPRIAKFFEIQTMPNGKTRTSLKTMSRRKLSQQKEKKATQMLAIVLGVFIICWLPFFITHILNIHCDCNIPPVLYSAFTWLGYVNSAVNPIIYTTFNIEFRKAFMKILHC

The compound `COc1ccc(CCNCCOc2cc(F)cc3c2OC(C)CC3)cc1` (stereo not drawn) yielded a Selectivity in experiment [1] of 15. Also, in experiment [2], the Ratio came out at 43. For the same compound, the Ki in experiment [3] came to 0.188 nM; in experiment [4], 2.73 nM; at D(2) dopamine receptor it was 8.13 nM. Also, the FSC recovery in experiment [5] worked out at 12%.
Regarding `CCCOc1ccc(CCCCNCCOc2cc(F)cc3c2OCCC3=O)cc1`, the Selectivity in experiment [1] turned out to be 18. Besides, the inhibitory constant (Ki) in experiment [3] is 48.8 nM; in experiment [4], 856 nM. Besides, in experiment [5], the FSC recovery turned out to be 33%.
`COc1ccc(CCCCNCCOc2cc(F)cc3c2OCCC3O)cc1` (stereo in doubt; (-)-34) [listing 1 of 2 here] yielded a Selectivity in experiment [1] of 19. Moreover, the Ratio in experiment [2] was found to be 13. In experiment [5], the FSC recovery came out at 111%.
In experiment [1], `COc1ccc(CCCCNCCOc2cc(F)cc3c2OCCC3=O)c2ccccc12` yielded a Selectivity of 0.29. Moreover, the Ratio in experiment [2] was determined as 0.23. In addition, the Ki in experiment [3] was 680 nM; in experiment [4], 198 nM; at D(2) dopamine receptor, 153 nM. For the same compound, the FSC recovery in experiment [5] is -15%.
In experiment [1], `CSc1ccc(CCCCNCCOc2cc(F)cc3c2OCCC3=O)cc1` gave a Selectivity of 17. In experiment [2], the Ratio worked out at 2.1. Further, the Ki in experiment [3] was determined as 18.4 nM; in experiment [4] it was 315 nM; on D(2) dopamine receptor, 38.8 nM. Moreover, in experiment [5], the FSC recovery came to 49%.
In experiment [1], `N#Cc1ccc(CCCCNCCOc2cc(F)cc3c2OCCC3=O)cc1` came in with a Selectivity of 32. In addition, the Ratio in experiment [2] is 6.4. Further, the Ki was determined as 11 nM in experiment [3], 355 nM in experiment [4] and 70.4 nM at D(2) dopamine receptor. Further, in experiment [5], the FSC recovery amounted to 17%.
`O=C1CCOc2c(OCCNCCCCc3ccc(Cl)cc3)cc(F)cc21`: the Selectivity in experiment [1] came out at 5.2. Also, the Ratio in experiment [2] came out at 1.7. Moreover, the Ki in experiment [3] came out at 19 nM; in experiment [4], 98.9 nM; on D(2) dopamine receptor it was 32.3 nM. The FSC recovery in experiment [5] stood at 30%.
For `COc1ccc(CCCCCNCCOc2cc(F)cc3c2OC(C)CC3)cc1` (stereo not drawn), the Selectivity in experiment [1] is 2.6. The Ratio in experiment [2] turned out to be 0.41. Besides, the Ki in experiment [3] was found to be 7.33 nM; in experiment [4], 19.1 nM; at D(2) dopamine receptor it was 3.02 nM. The FSC recovery in experiment [5] worked out at 59%.
As to `COc1ccc(CCCCCCNCCOc2cc(F)cc3c2OC(C)CC3)cc1` (stereo not drawn), the Selectivity in experiment [1] worked out at 3.4. The Ratio in experiment [2] is 0.26. Moreover, the figures for the inhibitory constant (Ki) (in experiment [3]; in experiment [4]; on D(2) dopamine receptor) were 8.99 nM, 30.8 nM and 2.31 nM, respectively. The FSC recovery in experiment [5] turned out to be 76%.
The compound `COc1ccc(CCCCNCCOc2cc(F)cc3c2OCCC3O)cc1` (stereo in doubt; 34) registered a Selectivity in experiment [1] of 15. Also, the Ratio in experiment [2] is 1. Further, in experiment [5], the FSC recovery came out at 108%.
Consider `O=C1CCOc2c(OCCNCCCCc3ccc([N+](=O)[O-])cc3)cc(F)cc21`, for which the Selectivity in experiment [1] is 13. For the same compound, the values for the inhibition constant Ki in experiment [3] and in experiment [4] were 19.3 nM and 258 nM, respectively. In addition, in experiment [5], the FSC recovery stood at 3%.
Compound `COc1ccc(CCCCNCCOc2cc(F)cc3c2OCCC3O)cc1` (single isomer, unassigned; (+)) [listing 1 of 2 here] displayed a Selectivity in experiment [1] of 35. Also, the Ratio in experiment [2] worked out at 0.23. The FSC recovery in experiment [5] worked out at 109%.
Turning to `COc1ccc(CCCCNCCOc2cc(F)cc3c2OCCC3O)cc1` (single isomer, unassigned; (+)) [listing 2 of 2 here], the Ki came out at 2.1 nM in experiment [3], 73.3 nM in experiment [4] and 0.482 nM at D(2) dopamine receptor.
As for `COc1ccc(CCCCN(C)CCOc2cc(F)cc3c2OCCC3=O)cc1`, the Selectivity in experiment [1] came out at 26. Moreover, the Ki in experiment [3] is 52.7 nM; in experiment [4], 1350 nM. Further, the FSC recovery in experiment [5] turned out to be 10%.
With `COc1ccc(CCCCNCCOc2cc(F)cc3c2OCCC3O)cc1` (stereo in doubt; (-)-34) [listing 2 of 2 here], the Ki turned out to be 0.31 nM in experiment [3], 5.86 nM in experiment [4] and 4.11 nM on D(2) dopamine receptor.
On to `COc1ccc(CCCCNCCOc2cc(F)cc3c2OCCC3=O)c(C)c1C`, for which, in experiment [1], the Selectivity amounted to 2. Besides, the results for the inhibition constant (Ki) in experiment [3] and in experiment [4] were 77 nM and 152 nM, respectively. In addition, the FSC recovery in experiment [5] came to 17%.
